Test results published in patent publication US20240216369A1, “THE USE OF A SPLICING MODULATOR FOR A TREATMENT SLOWING PROGRESSION OF HUNTINGTON'S DISEASE” (Novartis AG, priority 2019, published 2024).
Values joined by “and” are separate entries in the source; they are usually repeats but may differ in a detail not shown here. Equal entries are not always repeated.

Experiments:
[1] = GastroPlus ACAT/PBPK physico-chemical and formulation input parameters; conditions: for controlled-release dissolution profile, release: fitted to plasma profile
Excerpt: The pharmacokinetic (PK) model in adult subjects was developed using an Advanced Compartmental And Transit (ACAT)/Physiologically Based Pharmacokinetic (PBPK) model in GastroPlus™ software, Version 9.6 (SimulationPlus, Lancaster, CA, USA).
• Principle set-up of a pediatric ACAT/PBPK model in GastroPlus™ software including physico-chemical parameters, physiological parameters, and formulation factors. The ACAT model was linked to a full PBPK model in which tissue-to-plasma concentration ratios were estimated via in silico method provided by GastroPlus™ software. • Estimation of the clearance (CL) using plasma concentrations of branaplam from an open-label multi-part first-in-human proof of concept study of oral branaplam, Part 1 only. The aim of Part 1 of this study was to determine the safety and tolerability of ascending weekly doses and to estimate the maximum tolerated dose (MTD) of oral/enteral branaplam (formulation described in Example 3) in infants with Type 1 SMA. All patients had exactly 2 copies of the SMN2 gene. Patients were dosed once weekly with branaplam. The branaplam doses were escalated in subsequent cohorts until MTD was determined or when PK results confirmed that the MTD could not be reached due to a potential pharmacokinetic exposure plateau at higher doses. The starting dose referring to the free base was 6 mg/m^2 (equal to 0.3125 mg/kg). Subsequent doses were 12 mg/m^2, 24 mg/m^2, 48 mg/m^2 and 60 mg/m^2 (0.625 mg/kg, 1.25 mg/kg, 2.5 mg/kg and 3.125 mg/kg, respectively). 14 patients were enrolled in Part 1; 13 patients were exposed to branaplam. The duration of exposure ranged from 4-33 months, 7 patients remain in the study. Six of the 7 patients are receiving 60 mg/m^2, 1 patient is receiving 48 mg/m^2.
The in vivo solubility parameter for branaplam was newly assessed to consider the impact of the solubilizer cyclodextrin (CD), which is present in the currently used formulation (Example 3), on the solubility of branaplam. […]

[2] = First-in-human proof of concept study of oral branaplam in infants with Type 1 SMA: PK and safety; assay type: in vivo
Excerpt: • Principle set-up of a pediatric ACAT/PBPK model in GastroPlus™ software including physico-chemical parameters, physiological parameters, and formulation factors. The ACAT model was linked to a full PBPK model in which tissue-to-plasma concentration ratios were estimated via in silico method provided by GastroPlus™ software. • Estimation of the clearance (CL) using plasma concentrations of branaplam from an open-label multi-part first-in-human proof of concept study of oral branaplam, Part 1 only. […] The branaplam doses were escalated in subsequent cohorts until MTD was determined or when PK results confirmed that the MTD could not be reached due to a potential pharmacokinetic exposure plateau at higher doses. […]
The aim of part one of this study was to determine the safety and tolerability of ascending weekly doses and to estimate the maximum tolerated dose (MTD) of oral/enteral branaplam (see Example 3) in infants with Type 1 SMA. All patients had exactly 2 copies of the SMN2 gene, as determined e.g. by quantitative real time PCR or droplet digital PCR.
Patients were dosed once weekly with branaplam. The branaplam doses were escalated in subsequent cohorts until MTD was determined or when PK results confirmed that the MTD could not be reached due to a potential pharmacokinetic exposure plateau at higher doses. […]

CC1(C)CC(Oc2ccc(-c3ccc(-c4cn[nH]c4)cc3O)nn2)CC(C)(C)N1 [Compound 18, 5-(1H-pyrazol-4-yl)-2-(6-((2,2,6,6-tetramethylpiperidin-4-yl)oxy)pyridazin-3-yl)phenol]
controlled-release dissolution profile, release ([1]; at 0.25 h): 2% | controlled-release dissolution profile, release ([1]; at 1 h): 5% | Solubility ([1]; pH 6.8, optimized with GastroPlus on observed concentration-time data (cyclodextrin formulation), listed as branaplam): 0.088 at pH 6.8 (Optimized value using GastroPlus ™ software mg/mL and 0.088 at pH 6.8 (Optimized value using GastroPlus ™ based mg/mL | Tmax ([2]; human, plasma, Type 1 SMA patients, oral, nominal dose range 6 to 60 mg/m^2, read-out: median time of maximum concentration (Tmax) in plasma): 2.97 to 4 h | dose-limiting toxicity ([2]; infants with Type 1 SMA, once weekly 6 to 60 mg/m^2, exposure 4-33 months): No dose-limiting toxicity was observed
